Assay results from US20220169598A1, “HALOGENATED PHENYLSULFONAMIDE HYDROXAMIC ACID COMPOUNDS, COMPOSITIONS AND USES THEREOF AS SELECTIVE HDAC6 INHIBITORS” (2681603 ONTARIO INC., priority 2019, published 2022).
Read-outs that look alike come from different tables or passages of the source.

Key:
[1] = Kinetic solubility by analytical HPLC; type: physicochemical; details: PBS with 5% (v/v) DMSO, aqueous with cosolvent or surfactant or cyclodextrin, kinetic from dmso stock; PBS + 5% DMSO; initial concentration 300 μM; read-out: Saturation Concentration
Experimental: The initial concentration of each exemplary compound was 300 μM.

[2] = system: MV-4-11; experiment: Cytotoxicity in cell lines; type: cell-based; details: Homo sapiens
Experimental: (§1) The cytotoxicity of exemplary compounds of the application was tested in multiple cell lines including MV-4-11, MOLM-13, MCF-7, MRC9, K562 and MM.1S. The therapeutic index was evaluated by determining the toxicity of the exemplary compounds in healthy cell lines including fibroblasts and HUVEC.

[3] = system: K562; experiment: Cytotoxicity in cell lines; type: cell-based; details: Homo sapiens
Experimental: as §1

[4] = system: MOLM-13; experiment: Cytotoxicity in cell lines; type: cell-based; details: Homo sapiens
Experimental: as §1

[5] = system: HUVEC; experiment: Toxicity in healthy cell lines; type: cell-based; details: Homo sapiens, read-out: IC50 HUVEC
Experimental: as §1

[6] = system: Normal Human Fibroblast; experiment: Toxicity in healthy cell lines; type: cell-based; details: read-out: IC50 Normal Human Fibroblast
Experimental: as §1

[7] = system: MM.1S; experiment: Cytotoxicity in cell lines; type: cell-based; details: Homo sapiens, MM1.S; Table 4
Experimental: as §1

[8] = system: panel of 97 kinases; experiment: Kinome screen; type: biochemical; details: kinase screen
[9] = system: MRC9; experiment: Cytotoxicity in cell lines; type: cell-based; details: Table 5
Experimental: as §1

[10] = target: T1, HDAC6 (Homo sapiens, UniProt Q9UBN7); experiment: in vitro activity-based HDAC assay; type: biochemical; details: ranges given; read-out: IC50 for HDAC6
T1 sequence (Q9UBN7 1-1215): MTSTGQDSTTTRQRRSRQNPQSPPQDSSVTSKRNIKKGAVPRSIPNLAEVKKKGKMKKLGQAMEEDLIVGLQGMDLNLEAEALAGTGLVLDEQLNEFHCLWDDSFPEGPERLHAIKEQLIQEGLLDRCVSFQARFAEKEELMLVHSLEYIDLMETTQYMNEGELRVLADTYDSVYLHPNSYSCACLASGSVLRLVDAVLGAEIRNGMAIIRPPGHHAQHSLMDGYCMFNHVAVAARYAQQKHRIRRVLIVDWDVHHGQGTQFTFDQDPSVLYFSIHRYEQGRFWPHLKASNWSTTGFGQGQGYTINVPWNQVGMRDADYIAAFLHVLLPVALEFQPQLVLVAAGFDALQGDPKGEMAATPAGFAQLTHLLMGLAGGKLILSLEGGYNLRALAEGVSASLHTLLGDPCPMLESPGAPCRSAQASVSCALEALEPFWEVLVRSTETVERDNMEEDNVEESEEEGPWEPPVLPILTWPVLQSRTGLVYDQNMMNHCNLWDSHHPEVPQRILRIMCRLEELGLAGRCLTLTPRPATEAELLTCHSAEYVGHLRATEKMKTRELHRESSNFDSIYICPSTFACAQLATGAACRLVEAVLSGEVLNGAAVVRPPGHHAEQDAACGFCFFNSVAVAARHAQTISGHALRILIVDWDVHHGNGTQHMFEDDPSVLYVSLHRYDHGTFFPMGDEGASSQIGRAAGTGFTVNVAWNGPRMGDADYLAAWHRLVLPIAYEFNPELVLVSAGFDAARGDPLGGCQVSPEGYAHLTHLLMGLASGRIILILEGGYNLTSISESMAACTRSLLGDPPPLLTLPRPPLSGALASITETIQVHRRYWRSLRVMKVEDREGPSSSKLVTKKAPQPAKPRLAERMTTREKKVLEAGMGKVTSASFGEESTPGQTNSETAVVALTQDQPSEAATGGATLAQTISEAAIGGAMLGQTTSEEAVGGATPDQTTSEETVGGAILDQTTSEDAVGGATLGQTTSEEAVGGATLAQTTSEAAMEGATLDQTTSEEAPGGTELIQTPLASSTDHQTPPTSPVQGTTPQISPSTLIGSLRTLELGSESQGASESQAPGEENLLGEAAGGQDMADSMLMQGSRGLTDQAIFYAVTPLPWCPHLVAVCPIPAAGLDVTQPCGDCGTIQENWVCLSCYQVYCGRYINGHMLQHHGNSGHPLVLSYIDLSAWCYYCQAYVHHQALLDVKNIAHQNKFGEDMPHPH
Experimental: The exemplary compounds of Formula I and structurally related compounds were synthesized to assess their structure-activity relationship. […] The IC50 values for each exemplary compound were used to calculate the selectivity of the exemplary compounds for Formula I to HDAC6. The selectivity of each exemplary compound for HDAC6 was determined from examining the potency of HDAC6 in relation to the highest binding affinity of the other HDAC isoforms tested.

[11] = system: HeLa cells; experiment: Immunofluorescence analysis of α-tubulin and histone H3 acetylation; type: cell-based; details: 6 h treatment
Source text: Similar analysis is shown for exemplary compound I-34 in FIG. 19.

[12] = MV4-11, Table 4, read-out: IC50 MV-411
[13] = MV4-11, Table 5, read-out: IC50 MV-411
[14] = K562, Table 5, read-out: IC50 K562
[15] = MOLM-13, Table 5, read-out: IC50 MOLM-13
[16] = K562, Table 4, read-out: IC50 K562
[17] = MOLM-13, Table 4, read-out: IC50 MOLM-13

Compound `O=C(CCCCCCNC(=O)c1cnc(N(c2ccccc2)c2ccccc2)nc1)NO` [Ricolinostat, reference compound] has a solubility kinetic [1] of 26.1 ± 11.3 µM, an IC50 ([2]; MV4-11, read-out: IC50 MV-411) of 0.656 µM and an IC50 ([3]; K562, read-out: IC50 K562) of 12.8 µM. For the same compound, the IC50 ([4]; MOLM-13, read-out: IC50 MOLM-13) was 6.49 µM, the IC50 [5] was 4.9 µM and the IC50 [6] was 5.7 µM.
In the case of `O=C(NO)c1ccc(CN(C2CCCC2)S(=O)(=O)c2cc(F)c(F)c(F)c2F)cc1` [Compound I-51, 4-(((N-cyclopentyl-2,3,4,5-tetrafluorophenyl)sulfonamido)methyl)-N-hydroxybenzamide], the IC50 [2, 12] is reported as 2.8 µM and the IC50 [7] is reported as 2.7 µM.
With `CC(C)N(Cc1ccc(C(=O)NO)cc1)S(=O)(=O)c1cc(F)c(F)c(F)c1F` [Compound I-12, N-hydroxy-4-((2,3,4,5-tetrafluoro-N-isopropylphenylsulfonamido)methyl)benzamide] the solubility kinetic [1] was 74.5 ± 3 µM and the “inhibitory activity on a panel of 97 kinases” value [8] was “limited to no inhibitory activity”.
For `CC(C)N(Cc1cc(F)c(C(=O)NO)cc1F)S(=O)(=O)c1cc(F)c(F)c(F)c1F` [Compound I-52, 2,5-difluoro-N-hydroxy-4-(((2,3,4,5-tetrafluoro-N-isopropylphenyl)sulfonamido)methyl)benzamide], the IC50 [2, 12] was 1 µM and the IC50 [7] was 0.4 µM.
`O=C(/C=C/c1ccc(CN(Cc2cccnc2)S(=O)(=O)c2cc(F)c(F)c(F)c2F)c(C(F)(F)F)c1)NO` [Compound I-80] showed an IC50 [2, 13] of 0.338 µM, an IC50 [3, 14] of 16.3 µM and an IC50 [4, 15] of 7.6 µM.
Work on `COc1cc(/C=C/C(=O)NO)ccc1CN(Cc1cccnc1F)S(=O)(=O)c1cc(F)c(F)c(F)c1F` [Compound I-77] yielded an IC50 [2, 13] of 1.1 µM, an IC50 [3, 14] of 72.8 µM and an IC50 [4, 15] of 3.3 µM.
`O=C(NO)c1ccc(CN(CCc2ccccc2F)S(=O)(=O)c2cc(F)c(F)c(F)c2F)cc1` [Compound I-21, N-hydroxy-4-((2,3,4,5-tetrafluoro-N-(2-fluorophenethyl)phenylsulfonamido)methyl)benzamide] showed an IC50 [2, 12] of 0.478 µM, an IC50 [3, 16] of 7.9 µM and an IC50 [4, 17] of 1.7 µM.
`O=C(NO)c1ccc(CN(Cc2cccnc2)S(=O)(=O)c2cc(F)c(F)c(F)c2F)c(F)c1` [Compound I-30, 3-fluoro-N-hydroxy-4-((2,3,4,5-tetrafluoro-N-(pyridin-3-ylmethyl)phenylsulfonamido)methyl)benzamide] showed a solubility kinetic [1] of 46 ± 4.4 µM, an IC50 [2, 12] of 0.607 µM and an IC50 [3, 16] of 9.3 µM. The IC50 [4, 17] was 2.9 µM, the IC50 ([5]; Table 4, healthy cells) was 4.1 µM and the IC50 ([6]; Table 4, healthy cells) was 6.1 µM.
For `O=C(/C=C/c1ccc(CN(C2CCCC2)S(=O)(=O)c2c(F)c(F)c(F)c(F)c2F)cc1)NO` [Compound I-57, (E)-3-(4-((N-cyclopentyl-2,3,4,5,6-pentafluorophenylsulfonamido)methy)phenyl)-N-hydroxyacrylamide], the IC50 [9] was greater than 50 µM and the IC50 [10] was 0.01 to 0.03 µM.
In the case of `O=C(NO)c1ccc(CN(Cc2cccnc2F)S(=O)(=O)c2cc(F)c(F)c(F)c2F)cc1` [Compound I-19, N-hydroxy-4-((2,3,4,5-tetrafluoro-N-((2-fluoropyridin-3-yl)methyl)phenylsulfonamido)methyl)benzamide], the IC50 [3, 16] is reported as 5.6 µM.
With `O=C(/C=C/c1ccc(CN(C2CC2)S(=O)(=O)c2c(F)c(F)c(F)c(F)c2F)cc1)NO` [Compound I-56] the IC50 [9] was greater than 50 µM.
Compound `CC(C)CN(Cc1ccc(C(=O)NO)cc1)S(=O)(=O)c1cc(F)c(F)c(F)c1F` [Compound I-54, N-hydroxy-4-(((2,3,4,5-tetrafluoro-N-isobutylphenyl)sulfonamido)methyl)benzamide] has an IC50 [2, 12] of 0.5 µM and an IC50 [7] of 0.7 µM.
Work on `O=C(NO)c1ccc(CN(Cc2cccnc2F)S(=O)(=O)c2cc(F)c(F)c(F)c2F)c(F)c1` [Compound I-32, 3-fluoro-N-hydroxy-4-((2,3,4,5-tetrafluoro-N-((2-fluoropyridin-3-yl)methyl)phenylsulfonamido)methyl)benzamide] yielded an IC50 [2, 12] of 0.389 µM, an IC50 [3, 16] of 8.6 µM and an IC50 [4, 17] of 1.98 µM. For the same compound, the IC50 ([5]; Table 4, healthy cells) was 5.1 µM and the IC50 ([6]; Table 4, healthy cells) was 7.1 µM.
`O=C(/C=C/c1ccc(CN(Cc2cccnc2F)S(=O)(=O)c2cc(F)c(F)c(F)c2F)c(C(F)(F)F)c1)NO` [Compound I-79] showed an IC50 [2, 13] of 0.329 µM, an IC50 [3, 14] of 25.9 µM and an IC50 [4, 15] of 7.9 µM.
In the case of `O=C(CCCCCCNC(=O)c1cnc(N(c2ccccc2)c2ccccc2Cl)nc1)NO` [Citarinostat, reference compound], the “effect on α-tubulin acetylation (immunofluorescence)” value [11] is reported as “no preferential acetylation on α-tubulin until high concentrations”.
In the case of `O=C(/C=C/c1ccc(CNC(=O)c2cc(F)c(F)c(F)c2F)cc1)NO` [Compound I-82, (E)-2,3,4,5-tetrafluoro-N-(4-(3-(hydroxyamino)-3-oxoprop-1-en-1-yl)benzyl)benzamide], the IC50 [2, 13] is reported as 0.59 µM and the IC50 [10] is reported as 0.01 to 0.03 µM.
